Laboratory results published in ChEMBL document CHEMBL5252552, “Defined concatenated α6α1β3γ2 GABAA receptor constructs reveal dual action of pyrazoloquinolinone allosteric modulators” (Bioorg Med Chem, 2019).

Legend:
[1] = molecular target: T1, Gamma-aminobutyric acid receptor subunit alpha-6/beta-3/gamma-2 (Rattus norvegicus, UniProt P18508+P30191+P63079); experiment: (§1) Positive allosteric modulation of rat recombinant GABAA alpha6beta3alpha6-gamma2beta3 receptor expressed in Xenopus laevis oocytes assessed as increase in GABA-induced current amplitude at -80 mV holding potential under more potent phase in presence of GABA EC1 to 1.5 by two-electrode voltage-clamp assay; format: cell-based, Oocyte
T1 sequence (P18508 whole entry): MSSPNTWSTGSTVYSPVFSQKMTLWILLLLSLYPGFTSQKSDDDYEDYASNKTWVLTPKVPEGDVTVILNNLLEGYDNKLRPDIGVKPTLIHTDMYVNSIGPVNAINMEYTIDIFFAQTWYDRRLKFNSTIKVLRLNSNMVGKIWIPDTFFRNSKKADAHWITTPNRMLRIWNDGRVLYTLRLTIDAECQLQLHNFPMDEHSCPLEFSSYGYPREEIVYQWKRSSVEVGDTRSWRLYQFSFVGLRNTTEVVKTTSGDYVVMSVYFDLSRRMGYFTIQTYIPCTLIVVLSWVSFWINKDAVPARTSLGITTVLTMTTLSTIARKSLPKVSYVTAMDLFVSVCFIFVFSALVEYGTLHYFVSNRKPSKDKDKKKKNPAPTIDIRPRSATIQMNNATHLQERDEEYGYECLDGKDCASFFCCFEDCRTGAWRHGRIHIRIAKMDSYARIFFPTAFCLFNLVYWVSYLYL
T1 sequence (P30191 whole entry): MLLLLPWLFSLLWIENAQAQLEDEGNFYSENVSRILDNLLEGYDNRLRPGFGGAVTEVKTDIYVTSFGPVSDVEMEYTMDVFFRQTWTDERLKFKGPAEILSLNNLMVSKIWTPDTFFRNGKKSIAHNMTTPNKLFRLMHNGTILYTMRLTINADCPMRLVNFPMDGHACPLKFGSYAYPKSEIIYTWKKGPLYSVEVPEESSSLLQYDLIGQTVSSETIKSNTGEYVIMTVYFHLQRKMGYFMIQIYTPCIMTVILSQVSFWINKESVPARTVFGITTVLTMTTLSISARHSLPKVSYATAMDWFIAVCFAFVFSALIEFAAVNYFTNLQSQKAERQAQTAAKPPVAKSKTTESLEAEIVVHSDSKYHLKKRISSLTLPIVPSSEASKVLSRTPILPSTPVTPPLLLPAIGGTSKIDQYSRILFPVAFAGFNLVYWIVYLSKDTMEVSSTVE
T1 sequence (P63079 whole entry): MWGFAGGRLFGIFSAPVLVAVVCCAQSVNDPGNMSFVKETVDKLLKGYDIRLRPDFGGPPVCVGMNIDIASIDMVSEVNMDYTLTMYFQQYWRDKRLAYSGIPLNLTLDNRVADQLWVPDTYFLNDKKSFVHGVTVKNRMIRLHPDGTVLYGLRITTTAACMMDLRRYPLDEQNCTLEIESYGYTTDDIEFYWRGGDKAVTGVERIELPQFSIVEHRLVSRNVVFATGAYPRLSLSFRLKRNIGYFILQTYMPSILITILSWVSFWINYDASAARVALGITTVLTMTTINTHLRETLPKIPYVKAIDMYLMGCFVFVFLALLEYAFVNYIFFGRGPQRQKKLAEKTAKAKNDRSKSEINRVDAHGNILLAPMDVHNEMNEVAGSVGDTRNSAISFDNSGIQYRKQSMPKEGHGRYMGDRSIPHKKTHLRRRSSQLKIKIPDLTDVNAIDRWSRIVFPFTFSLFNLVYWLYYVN

[2] = molecular target: T1, Gamma-aminobutyric acid receptor subunit alpha-6/beta-3/gamma-2; experiment: as §1, with “less” for “more”; format: cell-based, Oocyte
[3] = molecular target: T2, Gamma-aminobutyric acid receptor subunit alpha-6/beta-3/gamma-2 (Rattus norvegicus) (UniProt P18508+P30191+P63079); experiment: Positive allosteric modulation of rat recombinant GABAA alpha6beta3alpha6-gamma2beta3 receptor expressed in Xenopus laevis oocytes assessed as maximal current at -80 mV holding potential under more potent phase in presence of GABA EC1 to 1.5 by two-electrode voltage-clamp assay relative to control; format: cell-based; conditions: Oocyte, filed as positive allosteric modulator
[4] = molecular target: T2, Gamma-aminobutyric acid receptor subunit alpha-6/beta-3/gamma-2 (Rattus norvegicus); experiment: Positive allosteric modulation of rat recombinant GABAA alpha6beta3alpha6-gamma2beta3 receptor expressed in Xenopus laevis oocytes assessed as maximal current under less potent phase in presence of GABA EC1 to 1.5 by two-electrode voltage-clamp assay relative to control; format: cell-based; conditions: Oocyte, filed as positive allosteric modulator
[5] = molecular target: T2, Gamma-aminobutyric acid receptor subunit alpha-6/beta-3/gamma-2 (Rattus norvegicus); experiment: Positive allosteric modulation of rat recombinant GABAA alpha6beta3alpha6-gamma2beta3 receptor expressed in Xenopus laevis oocytes assessed as maximal efficacy at -80 mV holding potential at 1 nM in presence of GABA EC1 to 1.5 by two-electrode voltage-clamp assay; format: cell-based; conditions: Oocyte
[6] = molecular target: T2, Gamma-aminobutyric acid receptor subunit alpha-6/beta-3/gamma-2 (Rattus norvegicus); experiment: Positive allosteric modulation of rat recombinant GABAA alpha6beta3alpha6-gamma2beta3 receptor expressed in Xenopus laevis oocytes assessed as maximal efficacy at -80 mV holding potential at 3 nM in presence of GABA EC1 to 1.5 by two-electrode voltage-clamp assay; format: cell-based; conditions: Oocyte
[7] = molecular target: T2, Gamma-aminobutyric acid receptor subunit alpha-6/beta-3/gamma-2 (Rattus norvegicus); experiment: Positive allosteric modulation of rat recombinant GABAA alpha6beta3alpha6-gamma2beta3 receptor expressed in Xenopus laevis oocytes assessed as maximal efficacy at -80 mV holding potential at 10 nM in presence of GABA EC1 to 1.5 by two-electrode voltage-clamp assay; format: cell-based; conditions: Oocyte
[8] = molecular target: T2, Gamma-aminobutyric acid receptor subunit alpha-6/beta-3/gamma-2 (Rattus norvegicus); experiment: Positive allosteric modulation of rat recombinant GABAA alpha6beta3alpha6-gamma2beta3 receptor expressed in Xenopus laevis oocytes assessed as maximal efficacy at -80 mV holding potential at 30 nM in presence of GABA EC1 to 1.5 by two-electrode voltage-clamp assay; format: cell-based; conditions: Oocyte
[9] = molecular target: T2, Gamma-aminobutyric acid receptor subunit alpha-6/beta-3/gamma-2 (Rattus norvegicus); experiment: Positive allosteric modulation of rat recombinant GABAA alpha6beta3alpha6-gamma2beta3 receptor expressed in Xenopus laevis oocytes assessed as maximal efficacy at -80 mV holding potential at 100 nM in presence of GABA EC1 to 1.5 by two-electrode voltage-clamp assay; format: cell-based; conditions: Oocyte, filed as positive allosteric modulator
[10] = molecular target: T2, Gamma-aminobutyric acid receptor subunit alpha-6/beta-3/gamma-2 (Rattus norvegicus); experiment: Positive allosteric modulation of rat recombinant GABAA alpha6beta3alpha6-gamma2beta3 receptor expressed in Xenopus laevis oocytes assessed as maximal efficacy at -80 mV holding potential at 300 nM in presence of GABA EC1 to 1.5 by two-electrode voltage-clamp assay; format: cell-based; conditions: Oocyte, filed as positive allosteric modulator
[11] = molecular target: T2, Gamma-aminobutyric acid receptor subunit alpha-6/beta-3/gamma-2 (Rattus norvegicus); experiment: Positive allosteric modulation of rat recombinant GABAA alpha6beta3alpha6-gamma2beta3 receptor expressed in Xenopus laevis oocytes assessed as maximal efficacy at -80 mV holding potential at 1 uM in presence of GABA EC1 to 1.5 by two-electrode voltage-clamp assay; format: cell-based; conditions: Oocyte, filed as positive allosteric modulator
[12] = molecular target: T2, Gamma-aminobutyric acid receptor subunit alpha-6/beta-3/gamma-2 (Rattus norvegicus); experiment: Positive allosteric modulation of rat recombinant GABAA alpha6beta3alpha6-gamma2beta3 receptor expressed in Xenopus laevis oocytes assessed as maximal efficacy at -80 mV holding potential at 3 uM in presence of GABA EC1 to 1.5 by two-electrode voltage-clamp assay; format: cell-based; conditions: Oocyte, filed as positive allosteric modulator
[13] = molecular target: T2, Gamma-aminobutyric acid receptor subunit alpha-6/beta-3/gamma-2 (Rattus norvegicus); experiment: Positive allosteric modulation of rat recombinant GABAA alpha6beta3alpha6-gamma2beta3 receptor expressed in Xenopus laevis oocytes assessed as maximal efficacy at -80 mV holding potential at 10 uM in presence of GABA EC1 to 1.5 by two-electrode voltage-clamp assay; format: cell-based; conditions: Oocyte, filed as positive allosteric modulator
[14] = molecular target: T2, Gamma-aminobutyric acid receptor subunit alpha-6/beta-3/gamma-2 (Rattus norvegicus); experiment: Positive allosteric modulation of rat recombinant GABAA alpha6beta3alpha6-gamma2beta3 receptor expressed in Xenopus laevis oocytes assessed as maximal efficacy at -80 mV holding potential at 30 uM in presence of GABA EC1 to 1.5 by two-electrode voltage-clamp assay; format: cell-based; conditions: Oocyte, filed as positive allosteric modulator
[15] = molecular target: T3, Gamma-aminobutyric acid receptor subunit alpha-1/beta-3/gamma-2 (Rattus norvegicus) (UniProt P18508+P62813+P63079); experiment: Positive allosteric modulation of rat recombinant GABAA alpha1beta3alpha1-gamma2beta3 receptor expressed in Xenopus laevis oocytes assessed as maximal efficacy at -80 mV holding potential at 30 nM in presence of GABA EC1 to 1.5 by two-electrode voltage-clamp assay; format: cell-based; conditions: Oocyte
[16] = molecular target: T3, Gamma-aminobutyric acid receptor subunit alpha-1/beta-3/gamma-2 (Rattus norvegicus); experiment: Positive allosteric modulation of rat recombinant GABAA alpha1beta3alpha1-gamma2beta3 receptor expressed in Xenopus laevis oocytes assessed as maximal efficacy at -80 mV holding potential at 100 nM in presence of GABA EC1 to 1.5 by two-electrode voltage-clamp assay; format: cell-based; conditions: Oocyte
[17] = molecular target: T3, Gamma-aminobutyric acid receptor subunit alpha-1/beta-3/gamma-2 (Rattus norvegicus); experiment: Positive allosteric modulation of rat recombinant GABAA alpha1beta3alpha1-gamma2beta3 receptor expressed in Xenopus laevis oocytes assessed as maximal efficacy at -80 mV holding potential at 300 nM in presence of GABA EC1 to 1.5 by two-electrode voltage-clamp assay; format: cell-based; conditions: Oocyte
[18] = molecular target: T3, Gamma-aminobutyric acid receptor subunit alpha-1/beta-3/gamma-2 (Rattus norvegicus); experiment: Positive allosteric modulation of rat recombinant GABAA alpha1beta3alpha1-gamma2beta3 receptor expressed in Xenopus laevis oocytes assessed as maximal efficacy at -80 mV holding potential at 30 uM in presence of GABA EC1 to 1.5 by two-electrode voltage-clamp assay; format: cell-based; conditions: Oocyte, filed as positive allosteric modulator
[19] = molecular target: T4, Gamma-aminobutyric acid receptor subunit alpha-1/alpha-6/beta-3/gamma-2 (Rattus norvegicus) (UniProt P18508+P30191+P62813+P63079); experiment: Positive allosteric modulation of rat recombinant GABAA alpha6beta3alpha1-gamma2beta3 receptor expressed in Xenopus laevis oocytes assessed as maximal efficacy at -80 mV holding potential at 30 nM in presence of GABA EC1 to 1.5 by two-electrode voltage-clamp assay; format: cell-based; conditions: Oocyte
[20] = molecular target: T4, Gamma-aminobutyric acid receptor subunit alpha-1/alpha-6/beta-3/gamma-2 (Rattus norvegicus); experiment: Positive allosteric modulation of rat recombinant GABAA alpha6beta3alpha1-gamma2beta3 receptor expressed in Xenopus laevis oocytes assessed as maximal efficacy at -80 mV holding potential at 100 nM in presence of GABA EC1 to 1.5 by two-electrode voltage-clamp assay; format: cell-based; conditions: Oocyte
[21] = molecular target: T4, Gamma-aminobutyric acid receptor subunit alpha-1/alpha-6/beta-3/gamma-2 (Rattus norvegicus); experiment: Positive allosteric modulation of rat recombinant GABAA alpha6beta3alpha1-gamma2beta3 receptor expressed in Xenopus laevis oocytes assessed as maximal efficacy at -80 mV holding potential at 300 nM in presence of GABA EC1 to 1.5 by two-electrode voltage-clamp assay; format: cell-based; conditions: Oocyte
[22] = molecular target: T4, Gamma-aminobutyric acid receptor subunit alpha-1/alpha-6/beta-3/gamma-2 (Rattus norvegicus); experiment: Positive allosteric modulation of rat recombinant GABAA alpha6beta3alpha1-gamma2beta3 receptor expressed in Xenopus laevis oocytes assessed as maximal efficacy at -80 mV holding potential at 30 uM in presence of GABA EC1 to 1.5 by two-electrode voltage-clamp assay; format: cell-based; conditions: Oocyte, filed as positive allosteric modulator
[23] = molecular target: T1, Gamma-aminobutyric acid receptor subunit alpha-6/beta-3/gamma-2; experiment: Positive allosteric modulation of rat recombinant GABAA alpha6beta3alpha6-gamma2beta3 receptor expressed in Xenopus laevis oocytes assessed as increase in GABA-induced current amplitude at -80 mV holding potential in presence of GABA EC1 to 1.5 by two-electrode voltage-clamp assay; format: cell-based, Oocyte
[24] = molecular target: T2, Gamma-aminobutyric acid receptor subunit alpha-6/beta-3/gamma-2 (Rattus norvegicus); experiment: Positive allosteric modulation of rat recombinant GABAA alpha6beta3alpha6-gamma2beta3 receptor expressed in Xenopus laevis oocytes assessed as maximal current at -80 mV holding potential in presence of GABA EC1 to 1.5 by two-electrode voltage-clamp assay relative to control; format: cell-based; conditions: Oocyte, filed as positive allosteric modulator
[25] = filed as positive allosteric modulator

| EC50 [1] | EC50 [2] | %max [3] | %max [4] | Efficacy [5] | Efficacy [6] | Efficacy [7, 25] | Efficacy [8, 25] | Efficacy [9] | Efficacy [10] | Efficacy [11] | Efficacy [12] | Efficacy [13] | Efficacy [14] | Efficacy [18] | Efficacy [22] | Efficacy [7] | Structure (SMILES) | also measured |
| --- | --- | --- | --- | --- | --- | --- | --- | --- | --- | --- | --- | --- | --- | --- | --- | --- | --- | --- |
| 0.013 µM | 100 µM | 49% | 2970% | 13% | 23% | 43% | 62% | 83% | 100% | 147% | 216% | 590% | 1370% | 851% | 1570% |  | COc1ccc(-n2nc3c4ccc(C(F)(F)F)cc4[nH]cc-3c2=O)cc1 | Efficacy [15]: 9%; Efficacy [16]: 14%; Efficacy [17]: 18%; Efficacy [19]: 1%; Efficacy [20]: 5%; Efficacy [21]: 10% |
| 0.008 µM | 118 µM | 113% | 1630% | 31% |  | 75% | 105% | 125% | 143% | 178% | 234% | 400% | 702% | 71% | 446% |  | COc1ccc(-n2nc3c4ccc(OC)cc4[nH]cc-3c2=O)cc1 | Efficacy [6, 25]: 59% |
| 0.01 µM | 17 µM | 56% | 796% | 6% | 13% |  | 40% | 65% | 94% | 180% | 387% | 688% | 703% |  |  | 22% | COc1ccc(-n2nc3c4ccc(Cl)cc4[nH]cc-3c2=O)cc1 |  |
| 0.028 µM | 32 µM | 96% | 353% | 6% | 16% |  | 46% | 77% | 118% | 156% | 235% | 300% | 385% |  |  | 28% | COc1ccc(-n2nc3c4ccc(F)cc4[nH]cc-3c2=O)cc1 |  |
|  |  |  |  | 9% | 12% |  |  | 70% | 98% | 163% | 325% | 581% | 732% |  |  | 27% | C#Cc1ccc2c3nn(-c4ccc(OC)cc4)c(=O)c-3c[nH]c2c1 | EC50 [23]: 5 µM; %max [24]: 946%; Efficacy [8]: 39% |
